Consider two molecules from patent US20080279791A1, “Use of Isoeugenol Methyl Ester as an Agent Against Bad Breath” (SYMRISE GMBH & CO. KG, priority 2004, published 2008).

What all share (assay type): cell-based
In experiment [1] the test system is total number of bacteria in the samples of saliva. In words: Total number of bacteria in samples of saliva. The note with it: concentration of 1000 ppm.
The subject of the next experiment is Porphyromonas gingivalis. In words: Minimum inhibiting concentration, serial-dilution test. On the procedure: (§1) The minimum inhibiting concentration (MIC) of isoeugenol methyl ether was determined in a serial-dilution test against various bacteria.
The subject of a further experiment is Escherichia coli. Described as above. On the procedure: as §1
The next experiment concerns Staphylococcus aureus. The experiment is described as above. On the procedure: as §1
The subject of a further experiment is Fusobacterium nucleatum. The experiment is described as above. As to the method: as §1
The test system of the next experiment is Pseudomonas aeruginosa. Described as above. On the procedure:
as §1

The next experiment deals with Prevotella intermedia. The experiment is described as above. As to the method:
as §1

For the next experiment, the system named is Veilonella parvula. Described as above. On the procedure:
as §1

The next experiment has as its system Streptococcus mutans. The experiment is described as above. As to the method:
as §1

A further experiment has as its system fresh morning saliva. In words: In-vitro test to reduce bad breath (medium inoculated with saliva, incubated, sniffed by panel). On the procedure: A sterile liquid medium inoculated with fresh morning saliva is incubated for a few days at 37° C. and then sniffed by a panel of testers.
As a control for the tests, Triclosan® (5-chloro-2-(2,4-dichlorophenoxy)phenol) was added to inoculated samples in a concentration of 0.05%.

In brackets after ≈: the same amount, converted by molar mass.

For `CC=Cc1ccc(OC)c(OC)c1` (racemic) [isoeugenol methyl ether, 1,2-dimethoxy-4-propenyl benzene], the “reduction of the total number of bacteria in saliva samples” value in experiment [1] is given as “no significant reduction”. Moreover, the MIC (as a rule, the least concentration at which growth counts as inhibited) in the experiment with Porphyromonas gingivalis was 500 µg/mL (≈ 2810 µM); with Escherichia coli it was greater than 1000 µg/mL; in the experiment on Staphylococcus aureus it was greater than 1000 µg/mL; with Fusobacterium nucleatum, 250 µg/mL (≈ 1400 µM); against Pseudomonas aeruginosa, greater than 1000 µg/mL; in the experiment with Prevotella intermedia, 500 µg/mL (≈ 2810 µM). For the same molecule, the figures for the MIC in the experiment with Veilonella parvula and against Streptococcus mutans were 250 µg/mL (≈ 1400 µM) and greater than 1000 µg/mL, respectively. The Type of action result with Porphyromonas gingivalis (500 ppm) is recorded as “effectiveness”. Besides, the Type entry in the experiment with Escherichia coli was “No action up to 1000 ppm”; with Staphylococcus aureus, “No action up to 1000 ppm”; with Fusobacterium nucleatum (250 ppm), “bacteriostatic action”; with Pseudomonas aeruginosa it was “No action up to 1000 ppm”; with Prevotella intermedia (500 ppm), “bactericidal action”; with Veilonella parvula (Veilonella parvula, 250 ppm), “bacteriostatic action”. In addition, in the experiment on Streptococcus mutans, the Type entry is “No action up to 1000 ppm”. For the same molecule, the “odour after the incubation period” value was “no odour” in the experiment with fresh morning saliva (0.01% added to inoculated samples) and “a changed characteristic odour or a mixed odour was discernible in some cases” in the experiment on fresh morning saliva (concentrations of significantly less than 0.01%). Besides, in the experiment on fresh morning saliva (0.05% added to the inoculated medium just one hour before the sensory assessment), the “odour at sensory assessment” value is “an unpleasant mixed odour of bad breath and a faint isoeugenol methyl ether note”. The molecule further returned a minimum effective concentration in the experiment with fresh morning saliva (no odour after incubation of inoculated samples) of 0.01%.
For the molecule `Oc1cc(Cl)ccc1Oc1ccc(Cl)cc1Cl` [Triclosan®, 5-chloro-2-(2,4-dichlorophenoxy)phenol, reference compound], the “odour after the incubation period” value in the experiment on fresh morning saliva (0.05% added to inoculated samples) is given as “the same faint odour of medium as the uninoculated samples”.
